Experimental data as given in patent publication US20090099231A1, “3-Sulfonylamino-Pyrrolidine-2-One Derivatives as Factor Xa Inhibitors” (priority 2005, published 2009).
Where a name gives a salt, the structure may show the parent alone.

Assays:
human Factor Xa = human Factor Xa (Homo sapiens, UniProt P00742); experiment: In vitro assay for inhibition of Factor Xa (fluorogenic assay, Rhodamine 110 bis-Cbz-glycylglycyl-L-arginine amide substrate); assay type: biochemical; conditions: for Factor Xa inhibitory activity: human Factor Xa 0.0003 U.ml-1, substrate 10 μM, 15 min preincubation, room temperature, pH 7.4; for Ki: Ki=IC50/(1+[Substrate]/Km), i.e. IC50 divided by 1.6, human Factor Xa fluorogenic assay
Method: Compounds of the present invention were tested for their Factor Xa inhibitory activity as determined in vitro by their ability to inhibit human Factor Xa in a fluorogenic assay, using Rhodamine 110, bis-Cbz-glycylglycyl-L-arginine amide as the fluorogenic substrate. Compounds were diluted from a 10 mM stock solution in dimethylsulfoxide at appropriate concentrations. Assay was performed at room temperature using buffer consisting of: 50 mM Tris-HCl, 150 mM NaCl, 5 mM CaCl2, pH 7.4 containing human Factor Xa (final concentration of 0.0003 U.ml-1). Compound and enzyme were preincubated for 15 min prior to addition of the substrate (final concentration of 10 μM). The reaction was stopped after 3 hrs with the addition of H-D-Phe-Pro-Arg-Chloromethylketone. An LJL-Analyst fluorimeter was used to monitor fluorescence with 485 nm excitation/535 nm emission. To obtain IC50 values the data were analysed using ActivityBase® and XLfit®.
Ki=IC50/(1+[Substrate]/Km)
The Ki value for the above assay can be obtained by dividing the IC50 value by 1.6.

human plasma = experiment: Measurement of Prothrombin Time (PT), time to clot formation in plasma; conditions: pooled plasma from 4 donors, test compound 0.03 to 100 uM, Thromboplastin C Plus
Method: Blood was collected into a sodium citrate solution (ratio 9:1) to give a final concentration of 0.38% citrate. Plasma was generated by centrifugation of citrated blood samples at 1200×g for 20 min at 4° C. and stored at −20° C. until use.
The PT test was performed using the BCS Coagulation Analyzer (Dade Behring). For assay, 50 ul of plasma containing test compound at concentrations ranging from 0.03 to 100 uM (made from a 100 uM stock containing 1% DMSO in plasma) was combined with 100 ul of Thromboplastin C Plus (Dade Behring). Upon addition of the reagents, absorbance at 405 nm was monitored and time to clot formation is determined (normal range for human plasma is 10.6-12.4 seconds).

Chain of human Factor Xa (P00742 235-488 limits assumed): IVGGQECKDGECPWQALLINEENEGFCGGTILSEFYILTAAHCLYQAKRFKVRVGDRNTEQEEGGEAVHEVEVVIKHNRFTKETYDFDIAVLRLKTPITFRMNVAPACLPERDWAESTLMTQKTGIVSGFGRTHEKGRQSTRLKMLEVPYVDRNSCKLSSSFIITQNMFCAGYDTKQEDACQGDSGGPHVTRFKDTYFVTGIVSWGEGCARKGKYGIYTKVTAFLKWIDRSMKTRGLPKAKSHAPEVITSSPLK
Chain of human Factor Xa (P00742 41-179 partner limits assumed): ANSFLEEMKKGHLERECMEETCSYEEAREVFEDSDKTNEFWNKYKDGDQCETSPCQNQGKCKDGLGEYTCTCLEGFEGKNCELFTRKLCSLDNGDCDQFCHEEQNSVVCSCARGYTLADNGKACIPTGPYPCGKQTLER

| Factor Xa inhibitory activity (human Factor Xa) | Ki (human Factor Xa) [nM] | Compound | activity in prothrombin time (PT) test (human plasma) |
| --- | --- | --- | --- |
| exhibit Factor Xa inhibitory activity |  | O=C1[C@@H](NS(=O)(=O)c2cc3cc(Cl)ccc3s2)CCN1c1ccc2c(c1)CCNC2 [Example 9, 5-Chloro-N-[(3S)-2-oxo-1-(1,2,3,4-tetrahydro-6-isoquinolinyl)-3-pyrrolidinyl]-1-benzothiophene-2-sulfonamide trifluoroacetate] | exhibit activity |
| exhibit Factor Xa inhibitory activity |  | Cl.O=C1[C@@H](NS(=O)(=O)c2ccc(-c3ccc(Cl)s3)s2)CCN1c1ccc2c(c1)CCNC2 [Example 10, 5′-Chloro-N-[(3S)-2-oxo-1-(1,2,3,4-tetrahydro-6-isoquinolinyl)-3-pyrrolidinyl]-2,2′-bithiophene-5-sulfonamide hydrochloride] | exhibit activity |
| exhibit Factor Xa inhibitory activity |  | Cl.O=C1[C@@H](NS(=O)(=O)c2ccc3cc(Cl)ccc3c2)CCN1c1ccc2c(c1)CNCC2 [Example 11, 6-Chloro-N-[(3S)-2-oxo-1-(1,2,3,4-tetrahydro-7-isoquinolinyl)-3-pyrrolidinyl]-2-naphthalenesulfonamide hydrochloride] | exhibit activity |
| exhibit Factor Xa inhibitory activity |  | Cl.O=C1[C@@H](NS(=O)(=O)CCc2ccc(Cl)s2)CCN1c1ccc2c(c1)CNCC2 [Example 12, 2-(5-Chloro-2-thienyl)-N-[(3S)-2-oxo-1-(1,2,3,4-tetrahydro-7-isoquinolinyl)-3-pyrrolidinyl]ethanesulfonamide hydrochloride] | exhibit activity |
| exhibit Factor Xa inhibitory activity |  | Cl.O=C1[C@@H](NS(=O)(=O)/C=C/c2ccc(Cl)s2)CCN1c1ccc2c(c1)CNCC2 [Example 13, (E)-2-(5-Chloro-2-thienyl)-N-[(3S)-2-oxo-1-(1,2,3,4-tetrahydro-7-isoquinolinyl)-3-pyrrolidinyl]ethenesulfonamide hydrochloride] | exhibit activity |
| exhibit Factor Xa inhibitory activity |  | O=C1[C@@H](NS(=O)(=O)c2ccc3c(Cl)c[nH]c3c2)CCN1c1ccc2c(c1)CNCC2.O=CO [Example 14, 3-Chloro-N-[(3S)-2-oxo-1-(1,2,3,4-tetrahydro-7-isoquinolinyl)-3-pyrrolidinyl]-1H-indole-6-sulfonamide formate] | exhibit activity |
| exhibit Factor Xa inhibitory activity |  | Cl.O=C1[C@H](NS(=O)(=O)c2ccc3cc(Cl)ccc3c2)CCN1c1ccc2c(c1)CCNC2 [Example 16, 6-Chloro-N-[(3R)-2-oxo-1-(1,2,3,4-tetrahydro-6-isoquinolinyl)-3-pyrrolidinyl]-2-naphthalenesulfonamide hydrochloride] | exhibit activity |
| exhibit Factor Xa inhibitory activity |  | Cl.O=C1[C@@H](NS(=O)(=O)c2ccc3cc(Cl)ccc3c2)CCN1c1cc2c(cc1F)CNCC2 [Example 20, 6-Chloro-N-[1-(7-fluoro-1,2,3,4-tetrahydro-6-isoquinolinyl)-2-oxo-3-pyrrolidinyl]-2-naphthalenesulfonamide hydrochloride] | exhibit activity |
| exhibit Factor Xa inhibitory activity | < 10 | Cl.O=C1[C@@H](NS(=O)(=O)c2cc3ccc(Cl)cc3s2)CCN1c1cc2c(cc1F)CNCC2 [Example 21, 6-Chloro-N-[(3S)-1-(7-fluoro-1,2,3,4-tetrahydro-6-isoquinolinyl)-2-oxo-3-pyrrolidinyl]-1-benzothiophene-2-sulfonamide hydrochloride] | exhibit activity |
| exhibit Factor Xa inhibitory activity |  | Cl.O=C1[C@@H](NS(=O)(=O)/C=C/c2ccc(Cl)s2)CCN1c1cc2c(cc1F)CNCC2 [Example 22, (E)-2-(5-Chloro-2-thienyl)-N-[(3S)-1-(7-fluoro-1,2,3,4-tetrahydro-6-isoquinolinyl)-2-oxo-3-pyrrolidinyl]ethenesulfonamide hydrochloride] | exhibit activity |

Continued, compound first:

| Compound | Factor Xa inhibitory activity (human Factor Xa) | Ki (human Factor Xa) [nM] | activity in prothrombin time (PT) test (human plasma) |
| --- | --- | --- | --- |
| Cl.O=C1[C@@H](NS(=O)(=O)/C=C/c2ccc(Cl)s2)CCN1c1ccc2c(c1F)CCNC2 [Example 18, (E)-2-(5-Chloro-2-thienyl)-N-[(3S)-1-(5-fluoro-1,2,3,4-tetrahydro-6-isoquinolinyl)-2-oxo-3-pyrrolidinyl]ethenesulfonamide hydrochloride] | exhibit Factor Xa inhibitory activity |  | exhibit activity |
| Cl.O=C1[C@@H](NS(=O)(=O)c2ccc3c(Cl)c[nH]c3c2)CCN1c1ccc2c(c1F)CCNC2 [Example 19, 3-Chloro-N-[(3S)-1-(5-fluoro-1,2,3,4-tetrahydro-6-isoquinolinyl)-2-oxo-3-pyrrolidinyl]-1H-indole-6-sulfonamide hydrochloride] | exhibit Factor Xa inhibitory activity |  | exhibit activity |
| Cl.O=C1[C@@H](NS(=O)(=O)c2ccc3c(Cl)c[nH]c3c2)CCN1c1cc2c(cc1F)CNCC2 [Example 23, 3-Chloro-N-[(3S)-1-(7-fluoro-1,2,3,4-tetrahydro-6-isoquinolinyl)-2-oxo-3-pyrrolidinyl]-1H-indole-6-sulfonamide hydrochloride] | exhibit Factor Xa inhibitory activity |  | exhibit activity |
| Cl.O=C1[C@@H](NS(=O)(=O)c2ccc3cc(Cl)ccc3c2)CCN1c1cc2c(cc1Cl)CNCC2 [Example 24, 6-Chloro-N-[(3S)-1-(7-chloro-1,2,3,4-tetrahydro-6-isoquinolinyl)-2-oxo-3-pyrrolidinyl]-2-naphthalenesulfonamide hydrochloride] | exhibit Factor Xa inhibitory activity |  | exhibit activity |
| Cl.O=C1[C@@H](NS(=O)(=O)/C=C/c2ccc(Cl)s2)CCN1c1cc2c(cc1Cl)CNCC2 [Example 25, (E)-N-[(3S)-1-(7-Chloro-1,2,3,4-tetrahydro-6-isoquinolinyl)-2-oxo-3-pyrrolidinyl]-2-(5-chloro-2-thienyl)ethenesulfonamide hydrochloride] | exhibit Factor Xa inhibitory activity |  | exhibit activity |
| Cl.O=C1[C@@H](NS(=O)(=O)c2ccc3c(Cl)c[nH]c3c2)CCN1c1cc2c(cc1Cl)CNCC2 [Example 26, 3-Chloro-N-[(3S)-1-(7-chloro-1,2,3,4-tetrahydro-6-isoquinolinyl)-2-oxo-3-pyrrolidinyl]-1H-indole-6-sulfonamide hydrochloride] | exhibit Factor Xa inhibitory activity | < 10 | exhibit activity |
| Cc1cc2c(cc1N1CC[C@H](NS(=O)(=O)c3ccc4cc(Cl)ccc4c3)C1=O)CCNC2.Cl [Example 27, 6-Chloro-N-[(3S)-1-(7-methyl-1,2,3,4-tetrahydro-6-isoquinolinyl)-2-oxo-3-pyrrolidinyl]-2-naphthalenesulfonamide hydrochloride] | exhibit Factor Xa inhibitory activity |  | exhibit activity |
| Cc1cc2c(cc1N1CC[C@H](NS(=O)(=O)/C=C/c3ccc(Cl)s3)C1=O)CCNC2.Cl [Example 28, (E)-2-(5-Chloro-2-thienyl)-N-[(3S)-1-(7-methyl-1,2,3,4-tetrahydro-6-isoquinolinyl)-2-oxo-3-pyrrolidinyl]ethenesulfonamide hydrochloride] | exhibit Factor Xa inhibitory activity |  | exhibit activity |
| Cc1cc2c(cc1N1CC[C@H](NS(=O)(=O)c3ccc4c(Cl)c[nH]c4c3)C1=O)CCNC2.Cl [Example 29, 3-Chloro-N-[(3S)-1-(7-methyl-1,2,3,4-tetrahydro-6-isoquinolinyl)-2-oxo-3-pyrrolidinyl]-1H-indole-6-sulfonamide hydrochloride] | exhibit Factor Xa inhibitory activity |  | exhibit activity |
| CC(C)N1CCc2cc(N3CC[C@H](NS(=O)(=O)c4ccc5cc(Cl)ccc5c4)C3=O)ccc2C1 [Example 30, 6-Chloro-N-{(3S)-1-[2-(1-methylethyl)-1,2,3,4-tetrahydro-6-isoquinolinyl]-2-oxo-3-pyrrolidinyl}-2-naphthalenesulfonamide] | exhibit Factor Xa inhibitory activity | < 10 | exhibit activity |
